According to patent US9211300B2 (priority 2012, dated 2015):
Like-named read-outs stand apart in the source and are kept apart here.

Tests used:
[1] = molecular target: T1, wild-type HCV genotype 1b NS5B protein (recombinant HCV polymerase) (Hepatitis C virus genotype 1b, UniProt Q9WMX2); assay: HCV Polymerase Enzyme Assay, wild-type; format: biochemical
T1 construct: HCV genotype 1b NS5B protein were used to generate recombinant HCV polymerases (with a deletion of the 21 carboxy terminal amino acids); made in house
Excerpt: (§1) Test compounds in the form of nucleoside triphosphates were examined for inhibitory activity against purified HCV polymerase in a standard assay. Bacterial expression constructs encoding the approximately 65 kDa HCV genotype 1b NS5B protein were used to generate recombinant HCV polymerases (with a deletion of the 21 carboxy terminal amino acids). Both the wild-type genotype 1b protein and protein containing the S282T mutation were expressed and purified for use in the enzymatic activity assay.
(§2) The enzymatic activity assay measured the inhibitory effect of increasing concentrations of test compound on the incorporation of α-[^33P]-labeled nucleotide into trichloroacetic acid-precipitable material. Recombinant polymerase and synthetic RNA template were combined in reaction buffer containing ribonucleoside triphosphates, α-[^33P]-labeled nucleotide and eight concentrations of test compound in three-fold dilutions. Reactions were incubated for two hours at 30° C.
(§3) Reactions were terminated by the addition of ice-cold trichloroacetic acid and sodium pyrophosphate to promote precipitation of newly-synthesized ribonucleic acid. Precipitable material from the reactions was collected by filtration onto 96-well filter plates, washed extensively with water, and quantified by liquid scintillation.
(§4) The inhibitory activity of test compounds was determined by fitting results to dose-response curves using XLfit software.

[2] = molecular target: T2, HCV genotype 1b NS5B protein containing the S282T mutation (Hepatitis C virus genotype 1b, UniProt Q9WMX2, S2701T); assay: HCV Polymerase Enzyme Assay, S282T; format: biochemical; settings: nucleoside triphosphates; genotype 1b NS5B with S282T mutation
T2 construct: HCV genotype 1b NS5B protein were used to generate recombinant HCV polymerases (with a deletion of the 21 carboxy terminal amino acids); made in house
Excerpt: as §1
as §2, with “Reactions were incubated for two hours at 30° C.” left out
as §3, §4

[3] = tested on: HCV genotype 1b replicon; assay: HCV Replicon Assay (Zluc, luciferase); format: cell-based; settings: Zluc cells (Huh-7-derived), 72 hours of incubation
Protocol: Huh-7-derived cell line (Zluc) that harbors an HCV genotype 1b replicon and a luciferase reporter gene was grown in Dulbecco's Modified Eagle Medium (DMEM) supplemented with 10% fetal bovine serum, 2 mM GlutaMAX, 1% MEM nonessential amino acids, 100 IU/mL penicillin, 100 μg/mL streptomycin, and 0.5 mg/mL Geneticin® (G418). For dose response testing the cells were seeded in 96-well plates at 7.5×10^3 cells per well in a volume of 50 μL, and incubated at 37° C./5% CO2. Drug solutions were made up freshly in Huh-7 media as 2× stocks. Ten additional 5-fold dilutions were prepared from these stocks in DMEM without G418. At least three hours after Zluc cells were seeded, drug treatment was initiated by adding 50 μL of drug dilutions to the plates in duplicate. Final concentrations of drug ranged from 100 μM to […]. Cells were then incubated at 37° C./5% CO2. Alternatively, compounds were tested at two concentrations (1 μM and 10 μM). […] For this, media was removed from the plates via gentle tapping. Fifty microliters of ONE-glo luciferase assay reagent was added to each well. The plates were shaken gently for 3 min at room temperature and luminescence was measured on a Victor^3 V 1420 multilabel counter (Perkin Elmer) with a 1 second read time using a 700 nm cut-off filter. The EC50 values were calculated from dose response curves from the resulting best-fit equations determined by Microsoft Excel and XLfit 4.1 software. When screening at two fixed concentrations, the results were expressed as % inhibition at 1 μM and 10 μM.

[4] = Cytotoxicity evaluation, CellTiter-Blue Cell Viability Assay; format: cell-based; settings: human, Zluc cells, read-out: HCV Replicon CC50
Protocol: (§5) For cytotoxicity evaluation, Zluc cells were treated with test compound as described herein, and cell viability was monitored using the CellTiter-Blue Cell Viability Assay (Promega) by adding 20 μL of the assay solution to each well. The plates were then incubated at 37° C./5% CO2 for at least 3 hours.

[5] = Liver triphosphate after a single oral dose in cynomolgus monkeys; format: in vivo
Protocol: For Compound 2b, isomer 1, a single oral dose at 10 mg/kg in PEG 200 (dose volume 3 mL/kg) was administered to three cynomolgus monkeys. One Untreated animal was used for the collection of control liver. Terminal liver samples were collected from three animals at 6 hours post dose.

[6] = CD-1 mice, liver triphosphate, normalised to 1 μmol/kg; for Ms Liver TP AUC (pmol · hr/g at 1 μmol/kg) following a single 2 mg/kg dose: single oral 2 mg/kg dose
Protocol: A single oral dose of test compound at 10 mg/kg and/or 2 mg/kg in PEG 200 (dose volume 5 mL/kg) was administered to nine CD-1 male mice. Five untreated animals were used for the collection of control plasma and liver. Terminal plasma and liver samples were collected from three animals per time point at 4, 12 and 24 hours post dose. Liver specimens were collected from all animals immediately after the incision. Freezing forceps stored in liquid nitrogen were used to freeze the liver before excision. Only liver samples were analyzed for triphosphate levels.
Liver samples were analyzed for the active species nucleoside triphosphate by LC-MS/MS. The triphosphate levels were assayed by homogenizing (on ice) a known weight of mouse liver with 4× volume of 0.95 M trichloroacetic acid (TCA) in water. Internal standard solution was added to the homogenate and mixed. Sample homogenates were centrifuged at 16.1 krpm for 5 minutes. Supernatants were transferred to 96 well plates and injected onto the LC-MS/MS system. The samples were chromatographed on a Luna NH2 column using a gradient system of ammonium acetate (1 mM to 20 mM and pH 8.0 to pH 10.0) in water and acetonitrile (70:30). The analyte was detected and quantified by tandem mass spectrometry using the analyte specific MRM transition on an API4000 equipped with a Turbo Ionspray® interface.

[7] = tested on: Zluc cells; assay: Cytotoxicity evaluation, CellTiter-Blue Cell Viability Assay; format: cell-based; settings: read-out: HCV Replicon CC50
Protocol: as §5

[8] = read-out: Wild-Type IC50, nucleoside triphosphates, wild-type genotype 1b NS5B

Nc1nc2c(ncn2[C@@H]2O[C@](F)(COP(=O)(O)OP(=O)(O)OP(=O)(O)O)[C@@H](O)[C@H]2O)c(=O)[nH]1 [Compound 103]
IC50 [1]: < 0.25 µM | IC50 [2]: < 0.25 µM

Nc1ccn(C2O[C@](F)(COP(=O)(O)OP(=O)(O)OP(=O)(O)O)[C@@H](O)[C@H]2O)c(=O)n1 (stereo partly shown) [Compound 105]
IC50 [1, 8]: 0.25 to 1 µM

O=c1[nH]c(=O)n([C@@H]2O[C@](F)(COP(=O)(O)OP(=O)(O)OP(=O)(O)O)[C@@H](O)[C@H]2O)cc1Br [Compound 104]
IC50 [1]: 1 to 10 µM

CC(C)OC(=O)[C@H](C)NP(=O)(OC[C@@]1(F)O[C@@H](n2ccc(=O)[nH]c2=O)[C@H](O)[C@@H]1O)Oc1ccccc1 (single isomer, unassigned) [Compound 2b Diastereomer 1]
EC50 ([3]; listed as 2b Diastereomer 1): > 10 µM | CC50 [4]: > 50 µM | Nucleoside triphosphate in Liver C6 (pmol/g) at 1 μmol/kg ([5]; 6 hr post dose, normalised to 1 μmol/kg): + (+ ≦ 10 pmol/g) | Nucleoside triphosphate in Liver C6 (pmol/g) at 10 mg/kg ([5]; single oral 10 mg/kg, concentration at 6 hr post dose): ++++ (100 pmol/g < ++++ ≦ 160 pmol/g) | Ms Liver TP AUC (pmol · hr/g at 1 μmol/kg) following a single 2 mg/kg dose [6]: +++++ (1600 < +++++) | Ms Liver TP AUC (pmol · hr/g at 1 μmol/kg) following a single 10 mg/kg dose ([6]; single oral 10 mg/kg dose): +++++ (1600 < +++++)

Nc1ncnc2c1ncn2[C@@H]1O[C@](F)(COP(=O)(O)OP(=O)(O)OP(=O)(O)O)[C@@H](O)[C@H]1O [Compound 106]
IC50 [1]: > 10 µM

CC(C)OC(=O)[C@H](C)NP(=O)(OC[C@@]1(F)O[C@@H](n2cnc3c(=O)[nH]c(N)nc32)[C@@H](O)C1O)Oc1ccccc1 (single isomer, unassigned) [Compound 3b Diastereomer 2]
EC50 ([3]; Hepatitis C virus, 72 h): 0.25 to 1 µM | CC50 [4]: > 50 µM

CC(C)OC(=O)[C@H](C)NP(=O)(OC[C@@]1(F)O[C@@H](n2ccc(=O)[nH]c2=O)[C@H](O)[C@@H]1O)Oc1ccccc1 (single isomer, unassigned) [Compound 2b Diastereomer 2]
EC50 ([3]; listed as 2b Diastereomer 2): 1 to 10 µM | CC50 [7]: > 50 µM | Ms Liver TP AUC (pmol · hr/g at 1 μmol/kg) following a single 2 mg/kg dose [6]: +++++ (1600 < +++++)

C[C@]1(O)[C@H](n2cc(Br)c(=O)[nH]c2=O)O[C@](F)(COP(=O)(O)OP(=O)(O)OP(=O)(O)O)[C@H]1O [Compound 101]
IC50 [1]: 1 to 10 µM

O=c1ccn(C2O[C@](F)(COP(=O)(O)OP(=O)(O)OP(=O)(O)O)[C@@H](O)[C@H]2O)c(=O)[nH]1 (stereo partly shown) [Compound 102]
IC50 [1, 8]: 0.25 to 1 µM | IC50 [2]: < 0.25 µM
